Read-outs that look alike come from different tables or passages of the source.
Target: T1, NanoLuc (Oplophorus gracilirostris, UniProt Q9GV45, A31E/A60N/A81I/F95D/I117V/K70R/L54V/L99Q/M102K/N193R/P142E/Q151K/Q38R/Q45L/V71I/Y165I)
T1 construct: Engineered 19 kDa subunit variant (NanoLuc, about 171 residues, no signal peptide)
Assay: spectrofluorometric titration
Format: binding
Text: spectrofluorometric titration on NanoLuc

T1 sequence (Q9GV45 28-196 with the stated changes): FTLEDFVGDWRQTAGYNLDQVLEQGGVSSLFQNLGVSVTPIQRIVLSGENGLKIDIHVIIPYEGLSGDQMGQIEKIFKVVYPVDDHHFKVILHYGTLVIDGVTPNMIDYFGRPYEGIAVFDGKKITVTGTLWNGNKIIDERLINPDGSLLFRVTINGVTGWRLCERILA

O=C1/C(=C/c2ccc[nH]2)N=C(/C=C/c2ccccc2)N1Cc1ccccc1 (mixture of isomers) [4bc]
Kd (read-out: [drawing 2] / [drawing 5] / 4bc): 590 ± 40 nM

O=C1/C(=C/c2ccc[nH]2)N=C(/C=C/c2cccs2)N1Cc1ccccc1 (mixture of isomers) [4bh]
Kd (read-out: [drawing 2] / [drawing 4] / 4bh): 320 ± 20 nM

O=C1/C(=C/c2ccc[nH]2)N=C(/C=C/c2ccccc2)N1CCc1ccc(O)cc1 (mixture of isomers) [4cc]
Kd (read-out: [drawing 3] / [drawing 7] / 4cc): 550 ± 40 nM
